Source: article PMC4356558, “Prediction of Chemical Respiratory Sensitizers Using GARD, a Novel In Vitro Assay Based on a Genomic Biomarker Signature” (PLoS ONE, 2015)
In brackets after ≈: the same amount, converted by molar mass. Read-outs that look alike come from different tables or passages of the source.

Columns and labels:
[1] = system: GRPS genomic biomarker signature (389 transcripts) in MUTZ-3 cells; experiment: GARD assay with GARD Respiratory Prediction Signature (GRPS), SVM classification of respiratory sensitizers
Procedure: (§1) The human acute myelomonocytic leukemia cell line MUTZ-3[68, 69] was obtained from Leibniz-Institut DSMZ-Deutsche Sammlung von Mikroorganismen und Zellkulturen (DSMZ, Braunschweig, Germany). Maintenance of cells, chemical stimulation of MUTZ-3 and all subsequent isolation of mRNA and preparation of cDNA were performed as previously described. In short, a phenotypic control of MUTZ-3 was performed using flow cytometry prior to chemical stimulation to ensure cells were in an immature state. The following FITC-conjugated mouse monoclonal antibodies (mAbs) were used: CD1a (DakoCytomation, Glostrup, Denmark), CD34, CD86, HLA-DR, IgG1 (BD Biosciences, Franklin Lakes, NJ). The following PE-conjugated mouse monoclonal antibodies were used: CD14 (DakoCytomation), CD54, CD80, IgG1 (BD Biosciences). Cell viability was determined using Propidium Iodide (BD Biosciences) staining. Samples were run on FACSCanto II instrument. Data was acquired using FACS Diva software (BD Biosciences) and analyzed using FCS Express V4 (De Novo Software, Los Angeles, CA). Gating was performed to exclude cell debris and non-viable cells based on forward- and side-scattering properties and quadrants established using isotype-controls. During chemical exposure, cells were seeded at 200.000 cells/ml in 24-well plates and exposed to chemical compound at the GARD input concentration. Stimulated cells were harvested after 24h incubation at 37 °C, 5% CO2 and RNA was isolated with TRIzol reagent (Life Technologies, Carlsbad, CA) using standardized protocols provided by the manufacturer. In parallel, a control of the maturity state of the cells was performed by flow cytometric analysis of CD86. Preparation of cDNA and hybridization, washing and scanning of the Human Gene 1.0 ST Arrays (Affymetrix, Santa Clara, CA, USA) was performed, according to standardized protocols provided by the manufacturer (Affymetrix).
Gene expression data obtained from the Human Gene 1.0 ST Arrays were normalized using the Single-Channel array normalization (SCAN) algorithm, and potential batch effects between different set of experiments were adjusted using the ComBat empirical bayes method. Normalizations and batch adjustments were performed in R statistical software using the open software Bioconductor v2.14 [73] with the additional software packages SCAN.UPC [70] and sva. Normalized data was imported into Qlucore Omics Explorer 3.0 (Qlucore AB, Lund, Sweden) and visualized using Principal Component Analysis (PCA). Predictors were selected from a one-way ANOVA p-value filtration, using false discovery rate (FDR) to adjust for multiple hypothesis testing, comparing respiratory sensitizers and non-respiratory sensitizers. […] The Backward Elimination algorithm was modified to minimize the Kullback-Leibler error [53] rather than maximizing the Area Under the Receiver Operating Characteristic (AUC ROC), in order to enable signature optimization in cases where the AUC ROC reaches 1.0. […] The script for Backwards Elimination was programmed in R, with the additional package e1071 [78]. The method by which the predictive genomic biomarker signature was established was validated using cross-validation based on Support Vector Machines (SVM), based on a linear kernel, as described previously. In short, the training dataset was randomly divided into a new cross-validation training dataset comprising 70% of the stimulations, and a cross-validation test dataset comprising 30% of the stimulations. In addition, care was taken to maintain the same proportion between respiratory sensitizers and non-respiratory sensitizers as in the complete training dataset. A new predictive genomic biomarker signature was identified from the cross-validation training dataset using one-way ANOVA p-value filtration as described above.

MUTZ-3 cells = experiment: Chemical cytotoxicity, concentration yielding 90% relative viability (Rv90), propidium iodide staining
Excerpt: A panel of 32 reference chemicals comprising a selection of 10 well characterized respiratory sensitizers and 22 non-respiratory sensitizers, collectively termed the training dataset, were used for cell stimulations in order to establish the predictive genomic biomarker signature. […] Additionally, a panel of 25 chemicals, including 6 respiratory sensitizers and 19 non-respiratory sensitizers, collectively termed the independent test dataset, were used for cell stimulations in order to form an independent testset for validation of the identified predictive genomic biomarker signature. The […] comprised both control chemicals, included during the training of the model, as well as chemicals previously unseen during training of the model. […] All chemicals were purchased from Sigma-Aldrich (St. Louis, MO, USA). Chemicals were dissolved and diluted into GARD input concentration in either water or DMSO prior to stimulation of cells. For chemicals dissolved in DMSO, the in-well concentration of DMSO was 0.1%. Monitoring of chemical cytotoxicity and establishment of GARD input concentration for each chemical compound was performed as previously described. […] Toxic compounds were used at a concentration yielding 90% relative viability (Rv90). The criterion that was first met determined the GARD input concentration for each compound.
as §1

[2] = system: CD86 expression of MUTZ-3 cells; experiment: CD86 cell surface expression of MUTZ-3 cells following chemical stimulation, flow cytometry; type: cell-based, human; details: 24 h stimulation at GARD input concentration; students t-test, p<0.05
[3] = system: GPS genomic biomarker signature (200 genes) in MUTZ-3 cells
Excerpt: The GARD assay is based on measurements of transcriptional levels of a genomic biomarker signature (GARD Prediction Signature, or GPS) comprising 200 genes in the myeloid human cell line MUTZ-3 [43–45] using transcriptome-wide DNA microarray technology.
The human acute myelomonocytic leukemia cell line MUTZ-3[68, 69] was obtained from Leibniz-Institut DSMZ-Deutsche Sammlung von Mikroorganismen und Zellkulturen (DSMZ, Braunschweig, Germany). Maintenance of cells, chemical stimulation of MUTZ-3 and all subsequent isolation of mRNA and preparation of cDNA were performed as previously described [41, 42]. In short, a phenotypic control of MUTZ-3 was performed using flow cytometry prior to chemical stimulation to ensure cells were in an immature state. The following FITC-conjugated mouse monoclonal antibodies (mAbs) were used: CD1a (DakoCytomation, Glostrup, Denmark), CD34, CD86, HLA-DR, IgG1 (BD Biosciences, Franklin Lakes, NJ). The following PE-conjugated mouse monoclonal antibodies were used: CD14 (DakoCytomation), CD54, CD80, IgG1 (BD Biosciences). Cell viability was determined using Propidium Iodide (BD Biosciences) staining. Samples were run on FACSCanto II instrument. Data was acquired using FACS Diva software (BD Biosciences) and analyzed using FCS Express V4 (De Novo Software, Los Angeles, CA). […]

physchem = details: aqueous buffer, kinetic from dmso stock
[4] = Max solubility of chemicals in cell media (establishment of GARD input concentration); details: for solubility: aqueous buffer, kinetic from dmso stock; for Max solubility: dissolved in vehicle (water or DMSO)
[5] = replicate stimulation 1, 24 h at GARD input concentration, independent test dataset, > 0 = respiratory sensitizer
[6] = replicate stimulation 2, 24 h at GARD input concentration, independent test dataset, > 0 = respiratory sensitizer
[7] = replicate stimulation 3, 24 h at GARD input concentration, independent test dataset, > 0 = respiratory sensitizer
[8] = respiratory sensitizer if any of replicate stimulations has SVM decision value > 0
[9] = reference compounds of the training dataset
[10] = concentration yielding 90% relative viability, MUTZ-3, training dataset

| SMILES | SVM decision value 1 [1, 5] | SVM decision value 2 [1, 6] | SVM decision value 3 [1, 7] | Classification, Pos if 1 sample > 0 [1, 8] | also measured |
| --- | --- | --- | --- | --- | --- |
| O=C(O)c1ccc(O)cc1 [p-hydroxybenzoic acid] | −0.81 | −0.56 | −1.09 | Non-sensitizer |  |
| O=[N+]([O-])c1ccc(Cl)c([N+](=O)[O-])c1 [2,4-dinitrochlorobenzene] | −1.66 | −1.18 | −1.90 | Non-sensitizer | Rv90 (MUTZ-3 cells; human): 4 µM |
| Cc1ccc(S(=O)(=O)NCl)cc1 [Chloramine T] | 0.52 | 0.59 |  | Sensitizer |  |
| Nc1ccccc1O [2-Aminophenol] |  |  |  |  | Up-regulation of CD86 in comparison to unstimulated cells [2]: up-regulation of CD86 was also observed; Rv90 (MUTZ-3 cells; human): 100 µM |
| Clc1ccccc1 [Chlorobenzene] | −1.03 | −0.76 | −1.15 | Sensitizer | SVM decision value 4 ([1]; replicate stimulation 4, 24 h at GARD input concentration, independent test dataset, > 0 = respiratory sensitizer): 0.24; SVM decision value 5 ([1]; replicate stimulation 5, 24 h at GARD input concentration, independent test dataset, > 0 = respiratory sensitizer): 0.06 |
| C1CNCCN1 [Piperazine] | −0.05 | −0.12 |  | Non-sensitizer | GRPS prediction compared with true identity ([1]; validation using the independent dataset): false negatives; Prediction in the GARD assay (skin sensitization) [3]: accurately predicted as skin sensitizers |
| Cc1ccc(N=C=O)cc1N=C=O [Toluendiisocyanate] |  |  |  |  | solubility (physchem): 40 µM (≈ 6.97 µg/mL) |
| CCCCCCCC(=O)O [Octanoic acid] | −0.65 | −0.79 | −1.22 | Non-sensitizer |  |
| O=Cc1ccccc1 [Benzaldehyde] | −0.79 | −0.87 | −0.70 | Non-sensitizer |  |
| OCC=Cc1ccccc1 [Cinnamyl alcohol] | −0.57 |  | −1.26 | Non-sensitizer | solubility [4]: 500 µM (≈ 67.1 µg/mL) |
| O=CC=O [Glyoxal] | −1.02 | −0.69 | −0.56 | Non-sensitizer | Rv90 (MUTZ-3 cells): 300 µM |
| Nc1ccc(N)cc1 [p-phenylenediamine] | −1.38 | −1.19 | −1.80 | Non-sensitizer | Rv90 (MUTZ-3 cells): 75 µM |
| CCCCCCCCCCCCOS(=O)(=O)[O-].[Na+] [Sodium dodecyl sulphate] |  |  |  |  | Rv90 (MUTZ-3 cells): 200 µM; Classification, Pos if 1 sample > 0 [1]: Non-sensitizer; SVM decision value 1 [1]: −1.49; SVM decision value 2 [1]: −0.80; SVM decision value 3 [1]: −1.30 |
| O=C=NCCCCCCN=C=O [Hexamethylen diisocyanate] |  |  |  |  | solubility (physchem): 100 µM (≈ 16.8 µg/mL) |
| C=O [Formaldehyde] |  |  |  |  | Rv90 (MUTZ-3 cells): 80 µM |
| O=C1OC(=O)c2ccccc21 [Phtalic Anhydride] | 0.20 | −0.12 |  | Sensitizer | Max solubility ([4]; chemicals of the independent test dataset): 200 µM; Max solubility [4, 9]: 200 µM |
| CCOC(=O)c1ccccc1C(=O)OCC [Diethyl phthalate] | −1.37 | −0.96 | −1.22 | Non-sensitizer |  |
| Oc1ccccc1 [Phenol] |  |  |  |  | Classification, Pos if 1 sample > 0 [1]: Non-sensitizer; SVM decision value 1 ([1]; human): −1.04; SVM decision value 2 ([1]; human): −0.38; SVM decision value 3 ([1]; human): −0.95 |
| [Cl][Pt-2]([Cl])([Cl])([Cl])([Cl])[Cl].[NH4+].[NH4+] [Ammonium hexachloroplatinate] |  |  |  |  | Up-regulation of CD86 in comparison to unstimulated cells [2]: statistically significant; Max solubility [4, 9]: 35 µM |
| O=CCCCC=O [Glutaraldehyde] |  |  |  |  | Up-regulation of CD86 in comparison to unstimulated cells [2]: statistically significant; Rv90 (MUTZ-3 cells; [10]): 10 µM |
| O=C(O)c1ccccc1O [Salicylic acid] | −0.73 | −1.08 | −1.13 | Non-sensitizer |  |
| O=C=Nc1ccc(Cc2ccc(N=C=O)cc2)cc1 [Methylene diphenol diisocyanate] |  |  |  |  | Max solubility [4, 9]: 50 µM |
| CCCCO [1-Butanol] |  |  |  |  | Classification, Pos if 1 sample > 0 [1]: Sensitizer; SVM decision value 1 [1]: −0.32; SVM decision value 2 [1]: 0.12 |
| CC(O)C(=O)O (centres unmarked) [Lactic acid] | −1.20 | −0.81 | −0.89 |  |  |
| Oc1cccc(O)c1 [Resorcinol] | −1.01 | −0.99 | −1.40 | Non-sensitizer |  |
| C=CCc1ccc(O)c(OC)c1 [Eugenol] | −1.67 | −1.53 | −1.51 | Non-sensitizer | Rv90 (MUTZ-3 cells; concentration yielding 90% relative viability, MUTZ-3, independent test dataset): 300 µM |
| Sc1nc2ccccc2s1 [2-mercaptobenzothiazole] | −0.44 | −0.43 | −0.57 |  |  |
| C=CC(=O)OCCO [2-Hydroxyethyl acrylate] |  |  |  |  | Rv90 (MUTZ-3 cells; [10]): 100 µM |
| OCC(O)CO [Glycerol] | −1.05 | −1.11 | −0.77 | Non-sensitizer |  |
| O=C(O)c1ccc2c(c1)C(=O)OC2=O [Trimellitic anhydride] |  |  |  |  | solubility [4]: 150 µM (≈ 28.8 µg/mL) |
